In ChEMBL document CHEMBL4229448 (Bioorg Med Chem Lett, 2018):
Active and inactive are the calls of the source. No cut-off for these calls is given here.

Tests used:
Acetylcholinesterase [1] = molecular target: T1, Acetylcholinesterase (Homo sapiens, UniProt P22303); test: Inhibition of human recombinant AChE at 0.05 uM using acetylthiocholine as substrate by UV-visible spectrophotometric Ellman's method
Acetylcholinesterase [2] = molecular target: T1, Acetylcholinesterase; test: Inhibition of human recombinant AChE using acetylthiocholine as substrate by UV-visible spectrophotometric Ellman's method
[3] = molecular target: Cholinesterase (Equus caballus) (UniProt P81908); test: Inhibition of horse serum BuChE at 0.1 uM using acetylthiocholine as substrate by UV-visible spectrophotometric Ellman's method
Chain of Cholinesterase (Equus caballus) (P81908 whole entry): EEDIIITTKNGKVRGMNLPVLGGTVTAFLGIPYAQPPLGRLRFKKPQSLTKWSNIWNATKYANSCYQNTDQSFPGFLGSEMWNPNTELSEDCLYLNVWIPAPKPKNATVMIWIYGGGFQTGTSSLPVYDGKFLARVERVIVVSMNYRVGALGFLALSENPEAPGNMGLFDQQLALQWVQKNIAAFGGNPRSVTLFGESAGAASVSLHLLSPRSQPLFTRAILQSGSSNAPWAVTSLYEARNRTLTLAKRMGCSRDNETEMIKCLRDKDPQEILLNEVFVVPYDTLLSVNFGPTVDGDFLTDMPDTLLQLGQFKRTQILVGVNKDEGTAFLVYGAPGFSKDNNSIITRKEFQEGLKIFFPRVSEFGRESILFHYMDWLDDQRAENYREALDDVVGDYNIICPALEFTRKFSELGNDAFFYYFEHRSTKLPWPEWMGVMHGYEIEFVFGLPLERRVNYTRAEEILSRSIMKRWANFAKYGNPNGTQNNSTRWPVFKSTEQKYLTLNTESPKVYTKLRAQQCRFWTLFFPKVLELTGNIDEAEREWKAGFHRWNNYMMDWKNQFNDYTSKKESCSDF

Cholinesterase [4] = molecular target: T2, Cholinesterase (Equus caballus, UniProt P81908); test: Inhibition of horse serum BuChE using acetylthiocholine as substrate by UV-visible spectrophotometric Ellman's method
T2 sequence (P81908 whole entry): as above

SH-SY5Y = test: Cytotoxicity against human SH-SY5Y cells assessed as decrease in cell viability after 48 hrs by MTT assay; assay type: cell-based
[5] = Effective permeability of the compound at 100 ug/ml after 16 hrs by PAMPA
[6] = Half life in pH 6.5 fasted state simulated intestinal fluid; assay type: ADME
[7] = Half life in rat liver microsomes; assay type: ADME, microsome
[8] = Metabolic stability in human plasma assessed as compound remaining measured after 120 mins; assay type: ADME, cell-free; settings: read-out: Stability
Cholinesterase [9] = molecular target: T2, Cholinesterase
Description: Inhibition of horse serum BuChE using acetylthiocholine as substrate after 60 mins by FRET assay

T1 sequence (P22303 whole entry): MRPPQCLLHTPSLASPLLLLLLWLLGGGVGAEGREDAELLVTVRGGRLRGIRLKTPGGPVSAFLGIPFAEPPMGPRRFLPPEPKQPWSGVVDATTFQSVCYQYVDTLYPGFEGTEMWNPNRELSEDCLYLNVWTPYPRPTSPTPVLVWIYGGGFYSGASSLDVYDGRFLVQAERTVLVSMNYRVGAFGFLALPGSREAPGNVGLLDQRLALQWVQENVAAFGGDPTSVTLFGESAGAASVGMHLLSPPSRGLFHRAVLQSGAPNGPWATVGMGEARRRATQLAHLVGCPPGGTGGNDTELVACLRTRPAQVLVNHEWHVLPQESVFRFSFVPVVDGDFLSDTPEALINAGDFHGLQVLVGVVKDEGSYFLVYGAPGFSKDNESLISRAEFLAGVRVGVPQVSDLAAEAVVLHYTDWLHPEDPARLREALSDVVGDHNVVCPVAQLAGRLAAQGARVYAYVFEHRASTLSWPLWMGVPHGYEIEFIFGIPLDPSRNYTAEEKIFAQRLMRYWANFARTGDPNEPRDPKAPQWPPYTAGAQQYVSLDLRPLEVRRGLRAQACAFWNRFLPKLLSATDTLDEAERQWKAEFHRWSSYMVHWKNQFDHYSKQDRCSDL

Row | SMILES | inhibition (Acetylcholinesterase [1]) | IC50 (Acetylcholinesterase [2]) [nM] | inhibition [3] | IC50 (Cholinesterase [4]) [nM] | IC50 (SH-SY5Y) [nM] | Papp at 16 h, 100 ug/ml [5] [×10⁻⁶ cm/s] | half-life [6] [h] | half-life [7] [h] | remaining at 2 h [8] [%] | IC50 (Cholinesterase [9]) [nM]
1 | COc1ccc(-c2ccccc2/C=C2/Cc3cc(OC)ccc3C2=O)cc1 | Active | 21.2 | Active | 99.4 | > 50000 | 26.2 | 8.57 | 3.58 | 97.5 | 2150
2 | COc1ccc2c(c1)C/C(=C/c1ccccc1-c1ccc3ccccc3c1)C2=O | Active | 32.4 | Active | 101 | > 50000 | 28.5 | 10.2 | 4.65 | 99.2 | 3970
3 | COc1ccc2c(c1)C/C(=C/C1CCN(Cc3ccccc3)CC1)C2=O | – | 44.1 | Active | 341 | – | – | – | – | – | –
4 | COc1ccc2c(c1)C/C(=C/c1ccccc1-c1ccc3nc(N)ccc3c1)C2=O | Active | 14.7 | Active | 13.1 | > 50000 | 24.3 | 9.63 | 3.78 | 96.1 | 1780
5 | CC(C)[N+](C)(CCOC(=O)C1c2ccccc2Oc2ccccc21)C(C)C [PROPANTHELINE] | – | – | – | – | – | – | – | – | 2.83 | –
6 | CC[C@H]1OC(=O)[C@H](C)[C@@H](O[C@H]2C[C@@](C)(OC)[C@@H](O)[C@H](C)O2)[C@H](C)[C@@H](O[C@@H]2O[C@H](C)C[C@H](N(C)C)[C@H]2O)[C@](C)(O)C[C@@H](C)C(=O)[C@H](C)[C@@H](O)[C@]1(C)O [ERYTHROMYCIN] | – | – | – | – | – | – | 8.25 | – | – | –
7 | COc1ccc2c(c1)C/C(=C/c1ccccc1-c1ccccc1)C2=O | Active | 29.8 | Active | 125 | > 50000 | 26.6 | 9.85 | 4.05 | 98.6 | 3310
8 | C[C@@H](NC(=O)c1cc(C(=O)N[C@@H](Cc2ccccc2)[C@H](O)CNC2CC2)cc(N(C)S(C)(=O)=O)c1)c1ccccc1 | – | – | – | 14.6 | – | – | – | – | – | –
